Experiment [1] deals with Aβ40 in conditioned medium of cells stably expressing Amyloid Precursor Protein (APP). The experiment is described as follows: In vitro BACE cell-based assay (Aβ40 in conditioned medium, sandwich ELISA). The following applies: Homo sapiens, HEK293, average IC50, HEK cells; read-out: HEK cell assay. In outline:
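Step two: 10-point compound titration added, starting 100 μM or 10 μM, 0.1% DMSO. Step three: medium Aβ40 measured by ELISA, capture 3 h and detection 2 h at 4° C, TRF read.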

Experiment [2] addresses Beta Secretase enzyme (BACE) (Homo sapiens, UniProt P56817). The experiment is described as follows: In vitro enzymatic BACE FRET (fluorescence resonance energy transfer) assay. Format: biochemical. The conditions noted are these: average IC50, enzyme assay; read-out: BACE 1 FRET assay. In outline: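 Fluorescence read after Tris quench to neutral pH. Reaction: 50 nM fluorophore/quencher peptide substrate, 1 h, in 0.05 M acetate pH 4.2, 10% DMSO final, 100 uM genapol.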

Sequence of Beta Secretase enzyme (BACE) (P56817 46-501, species assumed): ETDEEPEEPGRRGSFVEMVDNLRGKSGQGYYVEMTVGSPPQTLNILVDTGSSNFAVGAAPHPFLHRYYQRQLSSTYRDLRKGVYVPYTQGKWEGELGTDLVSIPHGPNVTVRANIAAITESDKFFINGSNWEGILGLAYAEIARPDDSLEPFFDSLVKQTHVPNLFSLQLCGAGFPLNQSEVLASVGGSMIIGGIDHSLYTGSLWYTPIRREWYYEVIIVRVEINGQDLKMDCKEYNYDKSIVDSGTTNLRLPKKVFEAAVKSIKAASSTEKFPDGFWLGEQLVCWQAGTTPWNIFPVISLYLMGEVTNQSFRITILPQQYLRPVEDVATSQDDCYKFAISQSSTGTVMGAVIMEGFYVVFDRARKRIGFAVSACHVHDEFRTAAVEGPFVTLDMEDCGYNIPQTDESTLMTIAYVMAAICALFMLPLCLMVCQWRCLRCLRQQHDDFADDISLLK

For `Cc1ccnn1-c1cc(F)c2c(c1)[C@]1(COC(N)=N1)c1cc(O)ccc1O2` [Example 631, (4S)-2-amino-5′-fluoro-7′-(5-methyl-1H-pyrazol-1-yl)spiro[1,3-oxazole-4,9′-xanthen]-2′-ol], the IC50 in experiment [1] came to 0.184 µM; in experiment [2] it was 0.0214 µM.

As to `Cc1ccn(-c2cc(F)c3c(c2)[C@]2(COC(N)=N2)c2cc(-c4cccnc4)ccc2O3)n1` [Example 633, (4S)-4′-fluoro-2′-(3-methyl-1H-pyrazol-1-yl)-7′-(3-pyridinyl)spiro[1,3-oxazole-4,9′-xanthen]-2-amine], the values for the IC50 in experiment [1] and in experiment [2] were 0.034 µM and 0.0039 µM, respectively.

Take `Cc1ccnn1-c1cc(F)c2c(c1)[C@]1(COC(N)=N1)c1cc(-c3cccnc3)ccc1O2` [Example 634, (4S)-4′-fluoro-2′-(5-methyl-1H-pyrazol-1-yl)-7′-(3-pyridinyl)spiro[1,3-oxazole-4,9′-xanthen]-2-amine]: the IC50 in experiment [1] was 0.154 µM; in experiment [2], 0.0303 µM.

`Cc1ccn(-c2cc(F)c3c(c2)[C@]2(COC(N)=N2)c2cc(-c4cncnc4)ccc2O3)n1` [Example 635, (4S)-4′-fluoro-2′-(3-methyl-1H-pyrazol-1-yl)-7′-(5-pyrimidinyl)spiro[1,3-oxazole-4,9′-xanthen]-2-amine]: the IC50 was 0.023 µM in experiment [1] and 0.0024 µM in experiment [2].

With `Cc1ccnn1-c1cc(F)c2c(c1)[C@]1(COC(N)=N1)c1cc(-c3cncnc3)ccc1O2` [Example 636, (4S)-4′-fluoro-2′-(5-methyl-1H-pyrazol-1-yl)-7′-(5-pyrimidinyl)spiro[1,3-oxazole-4,9′-xanthen]-2-amine], the values for the IC50 in experiment [1] and in experiment [2] were 0.273 µM and 0.0288 µM, respectively.

As to `CC(C)(C)C#Cc1cc2c(cn1)Oc1ccc(-c3cccnc3F)cc1C21CSC(N)=N1` (stereo not shown) [Example 637, 3-(3,3-dimethyl-1-butyn-1-yl)-7-(2-fluoro-3-pyridinyl)spiro[chromeno[2,3-c]pyridine-5,4′-[1,3]thiazol]-2′-amine], the IC50 is 0.062 µM in experiment [1] and 0.0021 µM in experiment [2].

With `NC1=NC2(CS1)c1cc(-c3cccnc3F)ccc1Oc1c2cc(C2=CCOCC2)nc1F` (stereo not shown) [Example 638, 3-(3,6-dihydro-2H-pyran-4-yl)-1-fluoro-7-(2-fluoro-3-pyridinyl)spiro[chromeno[2,3-c]pyridine-5,4′-[1,3]thiazol]-2′-amine], the values for the IC50 in experiment [1] and in experiment [2] were 0.004 µM and 0.0006 µM, respectively.

For `NC1=N[C@@]2(CO1)c1cc(-c3cccnc3)ccc1Oc1c2cc(C2=CCOCC2)nc1F` [Example 639, (5S)-3-(3,6-dihydro-2H-pyran-4-yl)-1-fluoro-7-(3-pyridinyl)spiro[chromeno[2,3-c]pyridine-5,4′-[1,3]oxazol]-2′-amine], the IC50 in experiment [1] stood at 0.003 µM; in experiment [2], 0.0004 µM.

As to `NC1=N[C@@]2(CO1)c1cc(-c3cccnc3F)ccc1Oc1c(F)cc(-c3ccc(F)nc3)cc12` [Example 640, (4S)-4′-fluoro-7′-(2-fluoro-3-pyridinyl)-2′-(6-fluoro-3-pyridinyl)spiro[1,3-oxazole-4,9′-xanthen]-2-amine], the IC50 amounted to 0.023 µM in experiment [1] and 0.0012 µM in experiment [2].

With `COC(C)(C)C#Cc1cnc2c(c1)[C@]1(COC(N)=N1)c1cc(-c3cncc(F)c3)c(F)cc1O2` [Example 641, (5S)-8-fluoro-7-(5-fluoro-3-pyridinyl)-3-(3-methoxy-3-methyl-1-butyn-1-yl)spiro[chromeno[2,3-b]pyridine-5,4′-[1,3]oxazol]-2′-amine], the IC50 in experiment [1] worked out at 0.013 µM; in experiment [2], 0.0009 µM.

On to `COC(C)(C)C#Cc1cnc2c(c1)[C@@]1(COC(N)=N1)c1cc(-c3cncc(F)c3)c(F)cc1O2` [Example 642, (5R)-8-fluoro-7-(5-fluoro-3-pyridinyl)-3-(3-methoxy-3-methyl-1-butyn-1-yl)spiro[chromeno[2,3-b]pyridine-5,4′-[1,3]oxazol]-2′-amine], for which the values for the IC50 in experiment [1] and in experiment [2] were 0.435 µM and 0.109 µM, respectively.

With `COC(C)(C)C#Cc1cnc2c(c1)[C@]1(COC(N)=N1)c1cc(-c3cncnc3)c(F)cc1O2` [Example 643, (5S)-8-fluoro-3-(3-methoxy-3-methyl-1-butyn-1-yl)-7-(5-pyrimidinyl)spiro[chromeno[2,3-b]pyridine-5,4′-[1,3]oxazol]-2′-amine], the IC50 in experiment [1] is 0.015 µM; in experiment [2] it was 0.0011 µM.

Consider `COC(C)(C)C#Cc1cnc2c(c1)[C@@]1(COC(N)=N1)c1cc(-c3cncnc3)c(F)cc1O2` [Example 644, (5R)-8-fluoro-3-(3-methoxy-3-methyl-1-butyn-1-yl)-7-(5-pyrimidinyl)spiro[chromeno[2,3-b]pyridine-5,4′-[1,3]oxazol]-2′-amine], for which the IC50 in experiment [1] was found to be 0.228 µM; in experiment [2], 0.0682 µM.

With `NC1=N[C@]2(CO1)c1cc(-c3cnccc3F)c(F)cc1Oc1ncc(C3=CCOCC3)cc12` [Example 645, (5R)-3-(3,6-dihydro-2H-pyran-4-yl)-8-fluoro-7-(4-fluoro-3-pyridinyl)spiro[chromeno[2,3-b]pyridine-5,4′-[1,3]oxazol]-2′-amine], the IC50 in experiment [1] turned out to be 0.291 µM; in experiment [2], 0.0531 µM.

In the case of `NC1=N[C@@]2(CO1)c1cc(-c3cnccc3F)c(F)cc1Oc1ncc(C3=CCOCC3)cc12` [Example 646, (5S)-3-(3,6-dihydro-2H-pyran-4-yl)-8-fluoro-7-(4-fluoro-3-pyridinyl)spiro[chromeno[2,3-b]pyridine-5,4′-[1,3]oxazol]-2′-amine], the IC50 worked out at 0.016 µM in experiment [1] and 0.0022 µM in experiment [2].

As for `NC1=N[C@@]2(CO1)c1cc(-c3cncc(F)c3)c(F)cc1Oc1ncc(C3=CCOCC3)cc12` [Example 647, (5S)-3-(3,6-dihydro-2H-pyran-4-yl)-8-fluoro-7-(5-fluoro-3-pyridinyl)spiro[chromeno[2,3-b]pyridine-5,4-[1,3]oxazol]-2′-amine], the IC50 came out at 0.016 µM in experiment [1] and 0.0021 µM in experiment [2].

As to `NC1=N[C@]2(CO1)c1cc(-c3cncc(F)c3)c(F)cc1Oc1ncc(C3=CCOCC3)cc12` [Example 648, (5R)-3-(3,6-dihydro-2H-pyran-4-yl)-8-fluoro-7-(5-fluoro-3-pyridinyl)spiro[chromeno[2,3-b]pyridine-5,4′-[1,3]oxazol]-2′-amine], the IC50 in experiment [1] came out at 2.79 µM; in experiment [2], 0.33 µM.

With `Cc1ncc(-c2cc(F)c3c(c2)[C@]2(COC(N)=N2)c2cc(-c4ccc(F)nc4)ccc2O3)cn1` [Example 649, (4S)-4′-fluoro-7′-(6-fluoro-3-pyridinyl)-2′-(2-methyl-5-pyrimidinyl)spiro[1,3-oxazole-4,9′-xanthen]-2-amine], the IC50 in experiment [1] stood at 0.118 µM; in experiment [2], 0.0198 µM.

As for `COc1cc(F)c2c(c1)[C@]1(CSC(N)=N1)c1cc(-c3cccnc3)ccc1O2` [Example 650, (4S)-4′-fluoro-2′-methoxy-7′-(3-pyridinyl)spiro[1,3-thiazole-4,9′-xanthen]-2-amine], the IC50 in experiment [1] stood at 0.251 µM; in experiment [2], 0.009 µM.

Consider `CC#Cc1cc(F)c2c(c1)[C@]1(COC(N)=N1)c1cc(-c3cccnc3F)ccc1O2` [Example 651, (4S)-4′-fluoro-7′-(2-fluoro-3-pyridinyl)-2′-(1-propyn-1-yl)spiro[1,3-oxazole-4,9′-xanthen]-2-amine], for which the IC50 came to 0.037 µM in experiment [1] and 0.0019 µM in experiment [2].
